Reference: PubChem BioAssay AID248 (DTP/NCI, 2004)
“And” between values parts separate entries of the source, which are not always exact repeats. Identical values can stand only once. Inconclusive results and toxic doses are left out.

Test system: L1210 leukemia ip in BDF1 mice, survival T/C
Assay: NCI In Vivo Anticancer Drug Screen. Data for tumor model L1210 Leukemia (intraperitoneal) in B6D2F1 (BDF1) mice
Settings: endpoint: mean survival time, higher = longer survival
Method in brief: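 Mice bearing the transplanted tumor received compound or vehicle. Survival of the treated group was divided by that of the vehicle-treated control group to give the ratio.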

What does the source list for OC(CBr)C(O)C(O)C(O)CBr (configuration not stated)?
T/C (dose: 15.6 mg/kg/injection, schedule: Q03HX008 (ip), vehicle: carboxymethylcellulose (CMC)): 90 % of control; T/C (dose: 15.6 mg/kg/injection, schedule: Q03HX024 (ip), vehicle: carboxymethylcellulose (CMC)): 91 % of control; T/C (dose: 31.2 mg/kg/injection, schedule: Q#A X034 (ip), vehicle: carboxymethylcellulose (CMC)): 99 % of control; T/C (dose: 31.25 mg/kg/injection, schedule: Q01DX Z (ip), vehicle: carboxymethylcellulose (CMC)): 94 % of control; T/C (dose: 31.3 mg/kg/injection, schedule: Q03HX008 (ip), vehicle: carboxymethylcellulose (CMC)): 96 % of control; T/C (dose: 31.3 mg/kg/injection, schedule: Q03HX024 (ip), vehicle: carboxymethylcellulose (CMC)): 93 % of control; T/C (dose: 62.5 mg/kg/injection, schedule: Q01DX001 (ip), vehicle: carboxymethylcellulose (CMC)): 101 % of control; T/C (dose: 62.5 mg/kg/injection, schedule: Q01DX009 (ip), vehicle: carboxymethylcellulose (CMC)): 104 % of control; T/C (dose: 62.5 mg/kg/injection, schedule: Q01DX017 (ip), vehicle: carboxymethylcellulose (CMC)): 98 % of control; T/C (dose: 62.5 mg/kg/injection, schedule: Q03HX008 (ip), vehicle: carboxymethylcellulose (CMC)): 97 % of control and 98 % of control; T/C (dose: 62.5 mg/kg/injection, schedule: Q03HX024 (ip), vehicle: carboxymethylcellulose (CMC)): 87 % of control; T/C (dose: 62.5 mg/kg/injection, schedule: Q#A X034 (ip), vehicle: carboxymethylcellulose (CMC)): 95 % of control; T/C (dose: 63.0 mg/kg/injection, schedule: Q01DX Z (ip), vehicle: carboxymethylcellulose (CMC)): 103 % of control and 94 % of control; T/C (dose: 71.0 mg/kg/injection, schedule: Q01DX009 (oral), vehicle: carboxymethylcellulose (CMC)): 97 % of control; T/C (dose: 100.0 mg/kg/injection, schedule: Q01DX001 (ip), vehicle: saline): 98 % of control; T/C (dose: 100.0 mg/kg/injection, schedule: Q01DX009 (ip), vehicle: other): 103 % of control; T/C (dose: 106.0 mg/kg/injection, schedule: Q01DX009 (ip), vehicle: saline): 100 % of control; T/C (dose: 107.0 mg/kg/injection, schedule: Q## X006 (oral), vehicle: carboxymethylcellulose (CMC)): 94 % of control; T/C (dose: 120.0 mg/kg/injection, schedule: Q01DX001 (ip), vehicle: carboxymethylcellulose (CMC)): 97 % of control; T/C (dose: 125.0 mg/kg/injection, schedule: Q01DX001 (ip), vehicle: carboxymethylcellulose (CMC)): 95 % of control and 92 % of control; T/C (dose: 125.0 mg/kg/injection, schedule: Q01DX009 (ip), vehicle: carboxymethylcellulose (CMC)): 104 % of control; T/C (dose: 125.0 mg/kg/injection, schedule: Q01DX015 (ip), vehicle: saline): 102 % of control; T/C (dose: 125.0 mg/kg/injection, schedule: Q01DX Z (ip), vehicle: carboxymethylcellulose (CMC)): 98 % of control and 92 % of control; T/C (dose: 125.0 mg/kg/injection, schedule: Q02DX005 (ip), vehicle: carboxymethylcellulose (CMC)): 100 % of control; T/C (dose: 125.0 mg/kg/injection, schedule: Q02DX008 (ip), vehicle: carboxymethylcellulose (CMC)): 95 % of control; T/C (dose: 125.0 mg/kg/injection, schedule: Q03HX008 (ip), vehicle: carboxymethylcellulose (CMC)): 98 % of control; T/C (dose: 125.0 mg/kg/injection, schedule: Q03HX024 (ip), vehicle: carboxymethylcellulose (CMC)): 105 % of control; T/C (dose: 125.0 mg/kg/injection, schedule: Q04DX003 (ip), vehicle: carboxymethylcellulose (CMC)): 87 % of control; T/C (dose: 160.0 mg/kg/injection, schedule: Q01DX009 (ip), vehicle: saline): 102 % of control; T/C (dose: 160.0 mg/kg/injection, schedule: Q## X006 (oral), vehicle: carboxymethylcellulose (CMC)): 95 % of control; T/C (dose: 177.0 mg/kg/injection, schedule: Q01DX009 (ip), vehicle: acetone): 113 % of control; T/C (dose: 200.0 mg/kg/injection, schedule: Q01DX001 (ip), vehicle: other): 97 % of control; T/C (dose: 200.0 mg/kg/injection, schedule: Q01DX001 (ip), vehicle: saline): 96 % of control; T/C (dose: 200.0 mg/kg/injection, schedule: Q01DX009 (ip), vehicle: other): 105 % of control; T/C (dose: 240.0 mg/kg/injection, schedule: Q01DX009 (ip), vehicle: saline): 104 % of control; T/C (dose: 240.0 mg/kg/injection, schedule: Q## X003 (oral), vehicle: carboxymethylcellulose (CMC)): 96 % of control; T/C (dose: 250.0 mg/kg/injection, schedule: Q01DX001 (ip), vehicle: carboxymethylcellulose (CMC)): 95 % of control and 104 % of control; T/C (dose: 250.0 mg/kg/injection, schedule: Q01DX009 (ip), vehicle: carboxymethylcellulose (CMC)): 98 % of control; T/C (dose: 250.0 mg/kg/injection, schedule: Q01DX015 (ip), vehicle: saline): 110 % of control; T/C (dose: 250.0 mg/kg/injection, schedule: Q01DX Z (ip), vehicle: carboxymethylcellulose (CMC)): 93 % of control and 106 % of control; T/C (dose: 250.0 mg/kg/injection, schedule: Q02DX005 (ip), vehicle: carboxymethylcellulose (CMC)): 95 % of control; T/C (dose: 250.0 mg/kg/injection, schedule: Q04DX003 (ip), vehicle: carboxymethylcellulose (CMC)): 97 % of control; T/C (dose: 250.0 mg/kg/injection, schedule: Q#A X034 (ip), vehicle: carboxymethylcellulose (CMC)): 98 % of control; T/C (dose: 266.0 mg/kg/injection, schedule: Q01DX001 (ip), vehicle: acetone): 189 % of control; T/C (dose: 266.0 mg/kg/injection, schedule: Q01DX001 (ip), vehicle: saline): 102 % of control; T/C (dose: 266.0 mg/kg/injection, schedule: Q01DX009 (ip), vehicle: acetone): 110 % of control; T/C (dose: 266.0 mg/kg/injection, schedule: Q04DX003 (ip), vehicle: acetone): 108 % of control; T/C (dose: 266.0 mg/kg/injection, schedule: Q04DX003 (ip), vehicle: saline): 100 % of control and 98 % of control; T/C (dose: 266.0 mg/kg/injection, schedule: Q08DX002 (ip), vehicle: acetone): 102 % of control; T/C (dose: 266.0 mg/kg/injection, schedule: Q08DX002 (ip), vehicle: saline): 100 % of control; T/C (dose: 360.0 mg/kg/injection, schedule: Q01DX009 (ip), vehicle: saline): 104 % of control; T/C (dose: 400.0 mg/kg/injection, schedule: Q01DX001 (ip), vehicle: acetone): 110 % of control; T/C (dose: 400.0 mg/kg/injection, schedule: Q01DX001 (ip), vehicle: other): 105 % of control; T/C (dose: 400.0 mg/kg/injection, schedule: Q01DX001 (ip), vehicle: saline): 101 % of control and 104 % of control; T/C (dose: 400.0 mg/kg/injection, schedule: Q01DX009 (ip), vehicle: acetone): 113 % of control; T/C (dose: 400.0 mg/kg/injection, schedule: Q01DX009 (ip), vehicle: other): 97 % of control; T/C (dose: 400.0 mg/kg/injection, schedule: Q04DX003 (ip), vehicle: acetone): 112 % of control; T/C (dose: 400.0 mg/kg/injection, schedule: Q04DX003 (ip), vehicle: saline): 102 % of control; T/C (dose: 400.0 mg/kg/injection, schedule: Q08DX002 (ip), vehicle: acetone): 103 % of control; T/C (dose: 400.0 mg/kg/injection, schedule: Q08DX002 (ip), vehicle: saline): 102 % of control; T/C (dose: 480.0 mg/kg/injection, schedule: Q01DX009 (sc), vehicle: carboxymethylcellulose (CMC)): 93 % of control; T/C (dose: 480.0 mg/kg/injection, schedule: Q## X008 (ip), vehicle: carboxymethylcellulose (CMC)): 94 % of control; T/C (dose: 500.0 mg/kg/injection, schedule: Q01DX001 (ip), vehicle: carboxymethylcellulose (CMC)): 96 % of control and 100 % of control and 93 % of control; T/C (dose: 500.0 mg/kg/injection, schedule: Q01DX009 (ip), vehicle: carboxymethylcellulose (CMC)): 105 % of control; T/C (dose: 500.0 mg/kg/injection, schedule: Q01DX015 (ip), vehicle: saline): 110 % of control; T/C (dose: 500.0 mg/kg/injection, schedule: Q01DX Z (ip), vehicle: carboxymethylcellulose (CMC)): 94 % of control and 104 % of control; T/C (dose: 500.0 mg/kg/injection, schedule: Q02DX005 (ip), vehicle: carboxymethylcellulose (CMC)): 108 % of control; T/C (dose: 500.0 mg/kg/injection, schedule: Q04DX003 (ip), vehicle: carboxymethylcellulose (CMC)): 95 % of control; T/C (dose: 540.0 mg/kg/injection, schedule: Q01DX009 (ip), vehicle: saline): 111 % of control; T/C (dose: 600.0 mg/kg/injection, schedule: Q01DX001 (ip), vehicle: acetone): 100 % of control; T/C (dose: 600.0 mg/kg/injection, schedule: Q01DX001 (ip), vehicle: saline): 104 % of control; T/C (dose: 600.0 mg/kg/injection, schedule: Q01DX009 (ip), vehicle: acetone): 113 % of control; T/C (dose: 600.0 mg/kg/injection, schedule: Q04DX003 (ip), vehicle: acetone): 123 % of control; T/C (dose: 600.0 mg/kg/injection, schedule: Q04DX003 (ip), vehicle: saline): 102 % of control; T/C (dose: 600.0 mg/kg/injection, schedule: Q08DX002 (ip), vehicle: acetone): 103 % of control; T/C (dose: 600.0 mg/kg/injection, schedule: Q08DX002 (ip), vehicle: saline): 102 % of control; T/C (dose: 800.0 mg/kg/injection, schedule: Q01DX001 (ip), vehicle: other): 109 % of control; T/C (dose: 900.0 mg/kg/injection, schedule: Q01DX001 (ip), vehicle: acetone): 108 % of control; T/C (dose: 900.0 mg/kg/injection, schedule: Q01DX001 (ip), vehicle: saline): 105 % of control; T/C (dose: 900.0 mg/kg/injection, schedule: Q04DX003 (ip), vehicle: acetone): 100 % of control; T/C (dose: 900.0 mg/kg/injection, schedule: Q04DX003 (ip), vehicle: saline): 105 % of control; T/C (dose: 900.0 mg/kg/injection, schedule: Q08DX002 (ip), vehicle: acetone): 100 % of control; T/C (dose: 900.0 mg/kg/injection, schedule: Q08DX002 (ip), vehicle: saline): 94 % of control; T/C (dose: 1000.0 mg/kg/injection, schedule: Q01DX001 (ip), vehicle: carboxymethylcellulose (CMC)): 100 % of control and 104 % of control and 94 % of control; T/C (dose: 1000.0 mg/kg/injection, schedule: Q01DX015 (ip), vehicle: saline): 121 % of control; T/C (dose: 1000.0 mg/kg/injection, schedule: Q04DX003 (ip), vehicle: carboxymethylcellulose (CMC)): 113 % of control; T/C (dose: 1440.0 mg/kg/injection, schedule: Q## X003 (oral), vehicle: carboxymethylcellulose (CMC)): 96 % of control
